Here are results for 21 molecules from PubChem BioAssay (NCI).

Holding throughout (experiment): NCI tumour cell line growth inhibition, 48 h
In assay [1] the test system is HOP-18 NSCLC.
The subject of assay [2] is DLD-1 colon.
In assay [3] the test system is KM20L2 colon.
Assay [4] concerns DMS 273 small cell lung.
For assay [5], the system named is SNB-78 CNS.
Assay [6] has as its system XF 498 CNS.
Assay [7] relates to M19-MEL melanoma.
Assay [8] deals with LXFL 529 NSCLC.
Assay [9] has as its system RXF-631 renal.
Assay [10] deals with SN12K1 renal.
Assay [11] has as its system P388 leukemia.

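Five concentrations, 48 hours, 96-well plates. At the GI50, growth is halved. TGI: total growth inhibition.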 A value given as a limit tells only on which side of the number the result lay.

As for `COc1ccc(/C=C\c2cc(OC)c(OC)c(OC)c2)cc1OC(=O)CC(N)C(=O)O` (stereo not given), the GI50 in assay [1] is greater than 100 µM. Moreover, the TGI was greater than 100 µM in assay [1]; greater than 100 µM in assay [2]; 21.2 µM in assay [3]; 0.00462 µM in assay [4]; greater than 100 µM in assay [5]; 0.00792 µM in assay [6]. In assay [7], this molecule registered a TGI greater than 100 µM.
`O=C1NC2(CCCCC2)C2CCCCC=C12` (stereo not given): the TGI in [1], in assay [2], in [4], in assay [8], in [5] and in [6] was greater than 100 µM throughout. This molecule also showed a TGI in [7] greater than 100 µM.
For `CN(C)C(=S)/N=c1\ssc(=S)n1Cc1ccco1`, the TGI in assay [9] is greater than 100 µM; in [1] it was greater than 100 µM; in [2] it was greater than 100 µM; in assay [3], greater than 100 µM; in [4], greater than 42.2 µM; in assay [8], greater than 100 µM. Moreover, the TGI was greater than 100 µM in [5], 60.1 µM in assay [6] and greater than 100 µM in assay [7].
On to `C[C@]12CC(C=O)C(=O)C(O)=C1CC[C@@H]1C2CC[C@@]2(C)C1CC[C@]2(C)O` (stereo not given in full), for which the TGI in [9] amounted to 72.7 µM; in assay [2], 34.5 µM; in assay [3], 52.9 µM; in [4] it was 46.8 µM; in assay [8] it was 31.6 µM; in assay [5], 35.8 µM. In addition, the figures for the TGI in [6] and in assay [7] were 33.4 µM and 44.8 µM, respectively.
On to `COC(=O)c1ccc(C(=O)OC)c2nc3cc(Cl)ccc3nc12`, for which the TGI in assay [9], in assay [1], in assay [2], in [3], in assay [4] and in assay [8] was greater than 100 µM in each case. For the same molecule, the TGI in [6] and in assay [7] was greater than 100 µM throughout.
As to `COc1cc(C2c3cc4c(cc3[C@@H](Nc3ccc([N+](=O)[O-])cc3)C3COC(=O)[C@H]23)OCO4)cc(OC)c1O` (stereo not given in full), the TGI was 11.4 µM in assay [9]; 2.88 µM in assay [10]; 77.2 µM in [1]; 19.2 µM in assay [2]; 14.8 µM in assay [3]; 5.65 µM in assay [4]. Moreover, the TGI in [11] is greater than 100 µM; in assay [8], 78.3 µM; in assay [5] it was greater than 71.5 µM; in assay [6], 15 µM; in assay [7] it was 22.8 µM. Moreover, the GI50 in [2] is 3.15 µM; in assay [4], 0.274 µM; in assay [6], 0.613 µM; in assay [7] it was 0.942 µM.
Take `CCC[CH2][Sn]([CH2]CCC)([O]C(=O)c1cc(F)ccc1F)[O]C(=O)c1cc(F)ccc1F`: the GI50 was 0.154 µM in [9]; 2.21 µM in assay [1]; 0.915 µM in assay [2]; 1.76 µM in assay [3]; 1.2 µM in assay [4]; 0.176 µM in assay [8]. The GI50 in [5] was 0.419 µM; in [6] it was 1.8 µM; in assay [7], 0.537 µM. The TGI in assay [9] was 0.363 µM; in assay [1], 3.67 µM; in assay [2] it was 2.16 µM; in [3], 3.37 µM; in assay [4], 2.45 µM; in assay [8], 0.491 µM. Further, the results for the TGI in assay [5], in [6] and in [7] were 1.86 µM, 3.21 µM and 1.8 µM, respectively.
Take `CCCS(=O)c1nc(COC(=O)NC)c(COC(=O)NC)n1C` (stereo not given): the TGI in assay [9], in [10], in [1], in [2], in [3] and in [4] was greater than 100 µM each time. The TGI in assay [11], in [8], in assay [5], in [6] and in [7] was greater than 100 µM each time.
As for `O=[N+]([O-])c1cccc(S(=O)(=O)N/N=C/c2cc(I)cc([N+](=O)[O-])c2O)c1`, the TGI was 78.6 µM in assay [1]; greater than 100 µM in assay [2]; greater than 100 µM in assay [3]; 52.9 µM in assay [4]; 48.3 µM in [8]; 66.4 µM in assay [5]. In [7], this molecule had a TGI greater than 100 µM.
For the molecule `O=C1C(Cl)=C(Cl)C(=O)N1c1cccc(C(F)(F)F)c1`, the TGI in [9], in [1], in assay [2], in assay [3], in assay [4] and in [8] was greater than 100 µM each time. Also, the TGI in assay [5], in assay [6] and in assay [7] was greater than 100 µM in each case.
As for `COC(=O)C12C34C=CC5(CCC6(C=CC1(CC3)O6)C52C(=O)OC)O4` (stereo not given), the TGI in assay [9], in assay [1], in assay [3], in assay [4], in assay [8] and in assay [5] was greater than 100 µM throughout. The TGI in assay [6] and in assay [7] was greater than 100 µM each time.
Regarding `CCOC(=O)/C(C#N)=C\Sc1ccccc1`, the TGI in assay [9] was 53.2 µM; in [1], greater than 100 µM; in assay [2], 45.5 µM; in assay [3], 51.9 µM; in [4], 41.9 µM; in [8], 57.3 µM. For the same molecule, the TGI is greater than 100 µM in [5], greater than 100 µM in assay [6] and 63.8 µM in assay [7].
In the case of `CC(C)N1C(C)[C@@H](c2ccccc2)O[P@@]1(=O)CC1=CCCCC1` (stereo not given in full), the TGI in [1], in [2], in assay [3], in [8], in assay [6] and in [7] was greater than 100 µM in each case.
Turning to `Nn1c(-c2cccc(Cl)c2)nc2ccccc2c1=O`, the TGI in assay [9], in assay [1], in [2], in [3], in [4] and in [8] was greater than 100 µM in each case. Moreover, the TGI in [5] and in assay [6] was greater than 100 µM throughout.
Turning to `CN(C)N=Nc1cccc(C(N)=O)c1`, the TGI in assay [1], in [2], in [3], in assay [4], in [8] and in [5] was greater than 100 µM in each case. The TGI in assay [6] and in assay [7] was greater than 100 µM throughout.
`CC(=O)[CH-]C(=O)c1ccccc1.CC(=O)[CH-]C(=O)c1ccccc1.CC[C@H](/C=C/C(C)[C@H]1CCC2[C@@H]3CC=C4C[C@@H]([O-])CC[C@]4(C)C3CC[C@@]21C)C(C)C.CC[C@H](/C=C/C(C)[C@H]1CCC2[C@@H]3CC=C4C[C@@H]([O-])CC[C@]4(C)C3CC[C@@]21C)C(C)C.Cl.[Ti+4]` (stereo not given in full): the GI50 in [1], in [2], in [3], in assay [4], in assay [8] and in [7] was greater than 25 µM throughout. For the same molecule, the TGI in assay [1], in assay [2], in [3], in [4], in assay [8] and in assay [7] was greater than 25 µM throughout.
With `CN(CCCN1C(=O)c2cccc3cc([N+](=O)[O-])cc(c23)C1=O)CCN(C)CCCN1C(=O)c2cccc3cc([N+](=O)[O-])cc(c23)C1=O`, the TGI in assay [9], in assay [1], in assay [3], in assay [4], in assay [8] and in assay [5] was greater than 39.3 µM each time. Also, the TGI in assay [6] and in [7] was greater than 39.3 µM each time.
Take `COc1cc([C@@H]2OC(=O)C3C2C(=O)O[C@H]3c2ccc(O)c(OC)c2)ccc1O` (stereo not given in full): the TGI in [9], in [1], in [2], in [3], in assay [4] and in [8] was greater than 100 µM in each case. Besides, the TGI in [5] and in assay [7] was greater than 100 µM each time.
As for `O=C1C(Cl)=C(Cl)C(=O)N1c1ccc(F)cc1`, the TGI in assay [9] is greater than 72.6 µM; in [1], 43.1 µM; in assay [2], 41 µM; in [3], 52.8 µM; in assay [4] it was greater than 62 µM; in [8] it was 32.1 µM. The TGI in assay [5] worked out at 71.3 µM; in assay [6] it was 34.9 µM; in assay [7], 41.8 µM.
For the molecule `COc1cccc2c(SCC(=O)Nc3ccccc3-c3ccccc3NC(=O)CSc3c4ccccc4nc4c(OC)cccc34)c3ccccc3nc12`, the TGI in [9], in assay [2], in assay [3], in assay [4], in assay [5] and in [6] was greater than 100 µM in each case.
`CCCCCCCCC(C)CCCCCCCCC(=O)OCC(COP(=O)([O-])OCC[N+](C)(C)C)OC(=O)CCCCCCCCC(C)CCCCCCCC` (stereo not given): the TGI in assay [9], in assay [1], in assay [2], in assay [3], in [4] and in assay [8] was greater than 100 µM in each case. Further, the TGI in assay [5] and in [7] was greater than 100 µM each time.
